In US7098195B2, “Fluorinated glucosamine analogs useful for modulating post-translational glycosylations on cells” (Health Research, Inc., priority 2001, dated 2006):
Marks after values point to notes of the source that are not given here.

Key:
[1] = system: HCELL/CD44 activity on human hematopoietic KG1a cells; experiment: Stamper-Woodruff adhesion assay, L-selectin-dependent lymphocyte adherence to KG1a cells; format: cell-based; settings: KG1a, neuraminidase (1 hr)
Text: To study the effects of 4-F-GlcNAc on the function of the L-selectin binding activity of CD44 (HCELL), we employed the shear-based, Stamper-Woodruff adhesion assay to examine the ability of 4-F-GlcNAc-treated KG1a cells to support L-selectin-dependent lymphocyte adherence. This assay is utilized to specifically assess the shear-dependent binding interactions between L-selectin naturally expressed on lymphocytes and HCELL expressed on KG1a cells (Dimitroff, C. J. et al. (2000) Proc. Nat. Acad. Sci., 97(25):13841–46; Sackstein, R. and Dimitroff, C. J. (2000) Blood, 96: 2765–74.). Before treating KG1a cells with 0.05, 0.1 or 0.5 mM 4-F-GlcNAc, we first pretreated KG1a cells with Vibrio cholerae neuraminidase (0.1 U/ml for 1 hr at 37° C.) to cleave all terminal α2,3 sialic acid-bearing residues and eliminate all HCELL activity. Glutaraldehyde-fixed monolayers of KG1a cells that were first treated with Vibrio cholerae neuraminidase (0.1 U/ml for 1 hr at 37° C.) then re-cultured in the presence of 4-F-GlcNAc (0.05–0.5 mM) for 30 hr at 37° C. Metabolic inhibitors swainsonine, an inhibitor of α-mannosidase II, tunicamycin, an inhibitor of N-acetylglucosamine phosphototransferase, were also utilized to compare the relative potencies of known glycosylation inhibitors. Human peripheral blood lymphocytes (5×10^6cells/ml RPMI1640 w/o NaBicarbonate/5%FBS) were overlayed onto KG1a monolayers at 80 rpm for 30 min. at 4° C., and after gently washing in PBS, lymphocytes bound to cell monolayers were fixed in 3% glutaraldehyde. Re-expression of HCELL activity or HECA-452-reactive CD44 on KG1a cells was determined after […] of 4-F-GlcNAc treatment. Bound lymphocytes were quantified at 100× magnification from a minimum of 5 fields from 2 slides, and the mean number of lymphocytes (standard error of the mean) was calculated.

[2] = system: HECA-452 epitopes on human hematopoietic KG1a cells; experiment: Flow cytometric analysis of HECA-452 epitopes on KG1a cells; format: cell-based; settings: KG1a, neuraminidase (1 hr)
Text: (§1) In a similar set of experiments, we analyzed the effects of 4-F-GlcNAc on selectin ligand expression and function on the human hematopoietic cell line KGla. KGla cells express a distinct HECA-452-reactive CD44 glycoform that functions as both an E- and L-selectin ligand (Dimitroff, C. J. et al. (2001) J. Cell Biol., 53: 1277–1286; Dimitroff, C. J. et al. (2000) Proc. Nat. Acad. Sci., 97(25):13841–46; Sackstein, R. and Dimitroff, C. J. (2000) Blood, 96: 2765–74.), otherwise known as HCELL, respectively. This specialized glycoform represents a major E-selectin and the primary L-selectin ligand on normal CD34+ HPCs and on leukemic cells, and, therefore, is also implicated in the BM homing aspects and growth-related activities of HPCs in vivo, respectively (Id.). We first performed flow cytometric analysis of HECA-452 antigen and CD44 on 4-F-GlcNAc-treated KGla cells. […] Only positive cells, which were those cells with fluorescence above background autofluorescence and fluorochrome-conjugated secondary Ab staining, were analyzed.
(§2) Flow cytometric analysis was performed on human leukocytes utilizing both direct and indirect immunofluorescence staining approaches. All cells utilized for these experiments were washed twice with cold PBS/2%FBS and suspended at 10^7/ml PBS/1% FBS. Primary antibodies, anti-CLA (HECA-452), -CD4, -CD8, CD43 (L60) and PSGL-1 (PL-2) along with the appropriate isotype-matched control antibodies were incubated with the cells for 30 min on ice. Following two washes with PBS/2%FBS, cells were resuspended in PBS/1%FBS and fluorochrome-conjugated secondary antibodies (2 μl) and incubated for 30 min on ice. Cells were washed twice with PBS/2%FBS, resuspended in PBS and flow cytometry was performed on a FACScan apparatus equipped with an argon laser tuned at 488 nm (Becton Dickinson).

[3] = system: P-selectin ligand activity of murine Th1 cells; experiment: Flow chamber analysis of P-selectin binding on murine Th1 cells; format: cell-based, mouse; settings: neuraminidase treatment alone (0.1 U/ml for 1 hr at 37° C.)
Text: (§3) CD4+ splenocytes were isolated from C57BL-6 mice by anti-murine CD4 L3T4 magnetic bead technology (Miltenyi Biotec) according to manufacturer's protocol. […] Culturing murine T helper cells in the presence of murine IL-12 and anti-murine IL-4 produces selectin binding Th1 cells by up-regulating FucTVII (69, 70) and core 2 enzyme (43–45, 71, 72), both critical for selectin ligand synthesis (i.e. decoration of PSGL-1 (67, 68)), and prevents the production of non-selectin binding Th2 cells (67–72). Th1 cells were also generated from mice deficient in α1,3 fucosyltransferase, FucTVII, and served as negative controls (33, 38, 40). Cells were harvested and re-plated at 2×10^6cells/ml on non-Ab coated plastic with murine IL-2 (20 ng/ml) in the presence or absence of murine IL-12 (10 ng/ml) and anti-murine IL-4 moAb 11B11 (10 μg/ml) for 48 h. […] Glycosylation inhibitors were added to cultures on day 6.5 for 30 hr, after first treating cells with neuraminidase (0.1 U/ml for 1 hr at 37° C.) to remove all cell surface terminal sialic acid resides and E and P-selectin ligand activity. Since selectin ligands are dependent on terminal sialic acid (α2,3 N-acetylneuraminic acid) for activity, this approach allowed for analysis of de novo synthesized selectin ligands in the presence of 0.05 mM 4-F-GlcNAc, N-glycan inhibitors, 0.23 mM swainsonine and 0.02 mM tunicamycin, and 1 mM GlcNAc (negative control).

[4] = system: E-selectin ligand activity of murine Th1 cells; experiment: Flow chamber analysis of E-selectin binding on murine Th1 cells; format: cell-based, mouse; settings: neuraminidase treatment alone (0.1 U/ml for 1 hr at 37° C.)
Text: as §3

[5] = system: CD44 on human hematopoietic KG1a cells; experiment: Flow cytometric analysis of CD44 on KG1a cells; format: cell-based; settings: KG1a, neuraminidase (1 hr)
Text: as §1, §2

HECA-452 epitopes = experiment: Flow cytometric analysis of HECA-452 epitopes on human T-lymphocytes; format: cell-based; settings: CLA+ T-cells, neuraminidase (1 hr)
Method: Only positive cells, which were those cells with fluorescence above background autofluorescence and fluorochrome-conjugated secondary Ab staining, were analyzed.
For analysis of CLA expression on T-cells treated with glycoconjugate modifiers, CLA^+ T-cells were first pretreated with neuraminidase (0.1 U/ml at 37° C. for 1 h) to eliminate functional CLA and cleave all HECA-452 reactive epitopes from the cell surface (35–38). Since we wanted to investigate whether these compounds directly affected CLA expression and function, neuraminidase pretreatment followed by incubations with glycosylation modifiers allowed for examination of de novo synthesized CLA/HECA-452 epitopes re-expressed on the cell surface. After neuraminidase digestion, cells were then incubated with tunicamycin (0.02 mM) (an inhibitor of GlcNAc phosphotransferase, the initial step of N-glycosylation), swainsonine (0.23 mM) (an inhibitor of α-mannosidase II and complex-type N-glycosylation), 4-F-GlcNAc (0.05 mM) (putative inhibitor of poly-N-acetyllactosamine biosynthesis), BAG (an inhibitor of O-glycan biosynthesis) (<2 mM) or GlcNAc (5 mM) (negative control, naturally-occurring metabolic counterpart of 4-F-GlcNAc)for 30 h in the presence of human recombinant IL-2. […] Concentrations for BAG were selected based on maximal O-glycosylation inhibitory effects at non-growth inhibitory concentrations as previously reported (39). To determine a suitable concentration of 4-F-GlcNAc for examining glycoconjugate-modifying effects without influencing cell growth or protein synthesis, we performed preliminary growth inhibitory experiments of cells incubated with 4-F-GlcNAc for 2 cell doublings (˜36 h) at 37° C. (cell viability assessed by Trypan-blue exclusion).
as §2, with “ice.” for “ice. Cells were washed twice with PBS/2%FBS, resuspended in PBS and flow cytometry was performed on a FACScan apparatus equipped with an argon laser tuned at 488 nm (Becton Dickinson).”

With “neuraminidase: Vibrio cholerae neuraminidase, cleaves terminal sialic acid residues” the “% Inhibition (lymphocyte binding)” value [1] was 98* %, the “Mean Lymphocyte Binding” value [1] was 4.2 and the “HECA-452 Mean Channel Fluorescence” value [2] was 43. The “P-selectin ligand activity of Th1 cells” value [3] was “decreased E and P-selectin ligand activity to baseline levels”, the “E-selectin ligand activity of Th1 cells” value [4] was “decreased E and P-selectin ligand activity to baseline levels” and the “CD44 % Positive Cell Staining” value [5] was 100%. For the same substance, the “HECA-452 Mean Channel Fluorescence” value (HECA-452 epitopes) was 27.
